Earlier results, collected in patent US10822295B2, “Menaquinol compositions and methods of treatment” (Epizon Pharma, Inc., priority 2018, dated 2020).

Key:
incidence of fractures = details: in vivo
normal blood coagulation = details: compared to vitamin K1 and MK-4
[1] = compared to MK-4

| half-life in serum [1] | SMILES | incidence of fractures (incidence of fractures) | effects on normal blood coagulation (normal blood coagulation) |
| --- | --- | --- | --- |
|  | CC(C)=CCC/C(C)=C/CC/C(C)=C/CC/C(C)=C/CC1=C(C)C(=O)c2ccccc2C1=O [MK-4, menaquinone-4] | decrease the incidence of fractures |  |
| long half-life | CC(C)=CCC/C(C)=C/CC/C(C)=C/CC/C(C)=C/CC/C(C)=C/CC/C(C)=C/CC/C(C)=C/CC1=C(C)C(=O)c2ccccc2C1=O [MK-7, menaquinone-7] |  | greater and longer lasting |
